Assay results reported in PubChem BioAssay AID248 (DTP/NCI, 2004).
Several values for one entry are separate records, joined by “and”; a condition that tells them apart may be missing. Equal entries are not always repeated. Toxic doses and inconclusive results are not listed. Rule as the data show it: active = T/C of 150% or more; inactive = T/C below 125%.

Test system: L1210 leukemia ip in BDF1 mice, survival T/C
Assay: NCI In Vivo Anticancer Drug Screen. Data for tumor model L1210 Leukemia (intraperitoneal) in B6D2F1 (BDF1) mice
Settings: endpoint: mean survival time, higher = longer survival
Outline: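 In this screen, tumor-bearing mice given compound are compared to those given vehicle, and their survival values are reported as a treated-to-control quotient.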

[1] = dose: 100.0 mg/kg/injection, schedule: Q01DX009 (ip), vehicle: Klucel (hydroxypropylcellulose) (HPC)
[2] = dose: 200.0 mg/kg/injection, schedule: Q01DX009 (ip), vehicle: Klucel (hydroxypropylcellulose) (HPC)
[3] = dose: 50.0 mg/kg/injection, schedule: Q01DX009 (ip), vehicle: saline with Tween-80
[4] = dose: 100.0 mg/kg/injection, schedule: Q01DX009 (ip), vehicle: saline with Tween-80
[5] = dose: 200.0 mg/kg/injection, schedule: Q01DX009 (ip), vehicle: saline with Tween-80
[6] = dose: 25.0 mg/kg/injection, schedule: Q04DX003 (ip), vehicle: saline with Tween-80
[7] = dose: 50.0 mg/kg/injection, schedule: Q04DX003 (ip), vehicle: saline with Tween-80
[8] = dose: 100.0 mg/kg/injection, schedule: Q04DX003 (ip), vehicle: saline with Tween-80
[9] = dose: 200.0 mg/kg/injection, schedule: Q01DX001 (ip), vehicle: carboxymethylcellulose (CMC)
[10] = dose: 75.0 mg/kg/injection, schedule: Q01DX001 (ip), vehicle: saline
[11] = dose: 150.0 mg/kg/injection, schedule: Q01DX001 (ip), vehicle: saline
[12] = dose: 300.0 mg/kg/injection, schedule: Q01DX001 (ip), vehicle: saline

Measured: T/C

O=C1c2ccccc2C(=O)N1CCCN1C(=O)c2ccccc2C1=O
inactive: dose: 100.0 mg/kg/injection, schedule: Q01DX001 (ip), vehicle: saline with Tween-80 111 % of control | dose: 100.0 mg/kg/injection, schedule: Q04DX002 (ip), vehicle: gum acacia 104 % of control | dose: 200.0 mg/kg/injection, schedule: Q01DX001 (ip), vehicle: saline with Tween-80 102 % of control | dose: 200.0 mg/kg/injection, schedule: Q04DX002 (ip), vehicle: gum acacia 96 % of control | dose: 400.0 mg/kg/injection, schedule: Q01DX001 (ip), vehicle: saline with Tween-80 100 % of control | dose: 400.0 mg/kg/injection, schedule: Q04DX002 (ip), vehicle: gum acacia 93 % of control

COc1ccc(C(=O)N/N=C/c2ccco2)cc1
inactive: [1] 100 % of control | [2] 86 % of control

COc1ccc(C)cc1NC(=O)NC(=O)c1ccc(Cl)cc1
inactive: [3] 88 % of control | [4] 98 % of control | [5] 95 % of control

N#CC1(Cc2ccc(OCc3ccccc3)c(OCc3ccccc3)c2)c2ccccc2C=CN1C(=O)c1ccccc1 (stereo not drawn)
inactive: [6] 100 % of control | [7] 91 % of control | [8] 89 % of control

O=C(CNC(=O)NCc1ccccc1)N/N=C/c1ccccc1O
inactive: [3] 89 % of control | [4] 103 % of control | [5] 97 % of control

Nc1nc(N)nc(CCCCc2nc(N)nc(N)n2)n1
inactive: [9] 90 % of control

O=C(C[n+]1ccc2ccccc2c1)c1cccc([N+](=O)[O-])c1
inactive: [8] 105 % of control | dose: 200.0 mg/kg/injection, schedule: Q04DX003 (ip), vehicle: saline with Tween-80 97 % of control | dose: 400.0 mg/kg/injection, schedule: Q04DX003 (ip), vehicle: saline with Tween-80 100 % of control

O=C(N/N=C\c1ccccc1O)c1ccco1
inactive: dose: 100.0 mg/kg/injection, schedule: Q01DX001 (ip), vehicle: carboxymethylcellulose (CMC) 98 % of control | [9] 95 % of control | dose: 400.0 mg/kg/injection, schedule: Q01DX001 (ip), vehicle: carboxymethylcellulose (CMC) 95 % of control

CC(C)(CO)N=Cc1cc(Cl)cc(Cl)c1O
inactive: [10] 102 % of control | [11] 101 % of control | [12] 109 % of control

CCCCN(CCCC)CC(O)c1cc(-c2ccccc2)nc2c(N)cccc12 (stereo not drawn)
inactive: [10] 98 % of control | [11] 100 % of control | [12] 96 % of control

CCC(C)NC(=O)Nc1ccccc1Cl (stereo not drawn)
inactive: [1] 101 % of control | [2] 95 % of control | dose: 400.0 mg/kg/injection, schedule: Q01DX009 (ip), vehicle: Klucel (hydroxypropylcellulose) (HPC) 100 % of control

COc1ccc(/C=C2/COC/C(=C\c3ccc(OC)cc3)C2=O)cc1
inactive: dose: 100.0 mg/kg/injection, schedule: Q01DX009 (ip), vehicle: saline 91 % of control | dose: 200.0 mg/kg/injection, schedule: Q01DX009 (ip), vehicle: saline 91 % of control | dose: 400.0 mg/kg/injection, schedule: Q01DX009 (ip), vehicle: saline 91 % of control

NN1CCN(N)C(=O)C1=O
inactive: dose: 100.0 mg/kg/injection, schedule: Q04DX003 (ip), vehicle: saline 105 % of control | dose: 200.0 mg/kg/injection, schedule: Q04DX003 (ip), vehicle: saline 108 % of control | dose: 400.0 mg/kg/injection, schedule: Q04DX003 (ip), vehicle: saline 97 % of control

CC1CC(C)(C)N=C(C(Cc2ccccc2)CC(O)c2ccccc2)O1 (stereo not drawn)
inactive: [6] 94 % of control | [7] 92 % of control | [8] 86 % of control and 90 % of control

CCOP(=S)(S)OCC.[Pd]
inactive: dose: 12.5 mg/kg/injection, schedule: Q01DX009 (ip), vehicle: other 95 % of control | dose: 25.0 mg/kg/injection, schedule: Q01DX009 (ip), vehicle: other 95 % of control | dose: 50.0 mg/kg/injection, schedule: Q01DX001 (ip), vehicle: saline 96 % of control | dose: 100.0 mg/kg/injection, schedule: Q01DX001 (ip), vehicle: saline 100 % of control | dose: 200.0 mg/kg/injection, schedule: Q01DX001 (ip), vehicle: saline 100 % of control | dose: 400.0 mg/kg/injection, schedule: Q01DX001 (ip), vehicle: saline 100 % of control
